Reference: ChEMBL document CHEMBL1201862, “PubChem BioAssay data set” (2004)
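Briefly, cells in 96-well plates were exposed to five compound concentrations for 48 h, and endpoints were estimated by linear interpolation. Here, GI50 denotes the concentration required for 50% inhibition of growth.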 Active and inactive are the calls of the source. Rule as the data show it: active = GI50 up to about 1.1 µM and inactive = higher.

What was measured:
Experiment in all cases: growth of human tumour cells (NCI), 48 h
PC-3 = test system: PC-3
SN12C = test system: SN12C
T47D = test system: T47D
SF-295 = test system: SF-295
RPMI-8226 = test system: RPMI-8226
786-0 = test system: 786-0
CCRF-CEM = test system: CCRF-CEM
SK-MEL-5 = test system: SK-MEL-5
OVCAR-5 = test system: OVCAR-5
OVCAR-4 = test system: OVCAR-4
HT-29 = test system: HT-29
OVCAR-3 = test system: OVCAR-3
SF-539 = test system: SF-539
KM12 = test system: KM12
NCI/ADR-RES = test system: NCI/ADR-RES
HCT-116 = test system: HCT-116
UO-31 = test system: UO-31
MCF7 = test system: MCF7
NCI-H23 = test system: NCI-H23
EKVX = test system: EKVX
HCT-15 = test system: HCT-15
OVCAR-8 = test system: OVCAR-8
Malme-3M = test system: Malme-3M
RXF 393 = test system: RXF 393
ACHN = test system: ACHN
IGROV-1 = test system: IGROV-1
NCI-H522 = test system: NCI-H522
HOP-92 = test system: HOP-92
BT-549 = test system: BT-549
U-251 = test system: U-251
HL-60 = test system: HL-60
MDA-MB-231 = test system: MDA-MB-231
MOLT-4 = test system: MOLT-4
UACC-62 = test system: UACC-62
COLO 205 = test system: COLO 205
SW-620 = test system: SW-620
TK-10 = test system: TK-10
SK-OV-3 = test system: SK-OV-3
Hs-578T = test system: Hs-578T
SK-MEL-2 = test system: SK-MEL-2
HOP-62 = test system: HOP-62
CAKI-1 = test system: CAKI-1
SR = test system: SR
NCI-H226 = test system: NCI-H226
DU-145 = test system: DU-145
HCC 2998 = test system: HCC 2998
NCI-H460 = test system: NCI-H460
M14 = test system: M14
LOX IMVI = test system: LOX IMVI
SNB-19 = test system: SNB-19
A498 = test system: A498
MDA-N = test system: MDA-N
K562 = test system: K562
A549 = test system: A549
UACC-257 = test system: UACC-257
SF-268 = test system: SF-268
SNB-75 = test system: SNB-75
SK-MEL-28 = test system: SK-MEL-28
MDA-MB-435 = test system: MDA-MB-435

O=C(CC(NC(=O)C(F)(F)F)C(=O)O)OCc1ccccc1 (configuration not stated)
GI50 (PC-3): > 100 µM (inactive)
GI50 (SN12C): > 100 µM (inactive)
GI50 (T47D): > 100 µM (inactive)
GI50 (SF-295): > 100 µM (inactive)
GI50 (RPMI-8226): > 100 µM (inactive)
GI50 (786-0): > 100 µM (inactive)
GI50 (CCRF-CEM): > 100 µM (inactive)
GI50 (SK-MEL-5): > 100 µM (inactive)
GI50 (OVCAR-5): > 100 µM (inactive)
GI50 (OVCAR-4): > 100 µM (inactive)
GI50 (HT-29): > 100 µM (inactive)
GI50 (OVCAR-3): > 100 µM (inactive)
GI50 (SF-539): > 100 µM (inactive)
GI50 (KM12): > 100 µM (inactive)
GI50 (NCI/ADR-RES): > 100 µM (inactive)
GI50 (HCT-116): > 100 µM (inactive)
GI50 (UO-31): > 100 µM (inactive)
GI50 (MCF7): > 100 µM (inactive)
GI50 (NCI-H23): > 100 µM (inactive)
GI50 (EKVX): > 100 µM (inactive)
GI50 (HCT-15): > 100 µM
GI50 (OVCAR-8): > 100 µM (inactive)
GI50 (Malme-3M): > 100 µM (inactive)
GI50 (RXF 393): > 100 µM (inactive)
GI50 (ACHN): > 100 µM (inactive)
GI50 (IGROV-1): > 100 µM (inactive)
GI50 (NCI-H522): > 100 µM (inactive)
GI50 (HOP-92): > 100 µM (inactive)
GI50 (BT-549): > 100 µM (inactive)
GI50 (U-251): > 100 µM (inactive)
GI50 (HL-60): > 100 µM (inactive)
GI50 (MDA-MB-231): > 100 µM (inactive)
GI50 (MOLT-4): > 100 µM (inactive)
GI50 (UACC-62): > 100 µM (inactive)
GI50 (COLO 205): > 100 µM (inactive)
GI50 (SW-620): > 100 µM (inactive)
GI50 (TK-10): > 100 µM (inactive)
GI50 (SK-OV-3): > 100 µM (inactive)
GI50 (Hs-578T): > 100 µM (inactive)
GI50 (SK-MEL-2): > 100 µM (inactive)
GI50 (HOP-62): > 100 µM (inactive)
GI50 (CAKI-1): > 100 µM (inactive)
GI50 (SR): > 100 µM (inactive)
GI50 (NCI-H226): > 100 µM (inactive)
GI50 (DU-145): > 100 µM (inactive)
GI50 (HCC 2998): > 100 µM (inactive)
GI50 (NCI-H460): > 100 µM (inactive)
GI50 (M14): > 100 µM (inactive)
GI50 (LOX IMVI): > 100 µM (inactive)
GI50 (SNB-19): > 100 µM (inactive)
GI50 (A498): > 100 µM (inactive)
GI50 (MDA-N): > 100 µM (inactive)
GI50 (K562): > 100 µM (inactive)
GI50 (A549): > 100 µM (inactive)
GI50 (UACC-257): > 100 µM (inactive)
GI50 (SF-268): > 100 µM (inactive)
GI50 (SNB-75): > 100 µM (inactive)
GI50 (SK-MEL-28): > 100 µM (inactive)
GI50 (MDA-MB-435): > 100 µM (inactive)

C/C(=N\NC(N)=S)C(CN1CCCCC1)C(C1=C(O)c2ccccc2OC1)c1ccccc1 (configuration not stated)
GI50 (PC-3): > 100 µM (inactive)
GI50 (SN12C): > 100 µM (inactive)
GI50 (T47D): 79.6 µM (inactive)
GI50 (SF-295): > 100 µM (inactive)
GI50 (RPMI-8226): 35.2 µM (inactive)
GI50 (786-0): > 100 µM (inactive)
GI50 (CCRF-CEM): 61.1 µM (inactive)
GI50 (SK-MEL-5): > 100 µM (inactive)
GI50 (OVCAR-5): > 100 µM (inactive)
GI50 (OVCAR-4): 83 µM (inactive)
GI50 (HT-29): > 100 µM (inactive)
GI50 (OVCAR-3): 82.4 µM (inactive)
GI50 (SF-539): > 100 µM (inactive)
GI50 (KM12): > 100 µM (inactive)
GI50 (NCI/ADR-RES): > 100 µM (inactive)
GI50 (HCT-116): > 100 µM (inactive)
GI50 (UO-31): > 100 µM (inactive)
GI50 (MCF7): > 100 µM (inactive)
GI50 (NCI-H23): > 100 µM (inactive)
GI50 (EKVX): > 100 µM (inactive)
GI50 (HCT-15): > 100 µM
GI50 (OVCAR-8): > 100 µM (inactive)
GI50 (Malme-3M): > 100 µM (inactive)
GI50 (RXF 393): > 100 µM (inactive)
GI50 (ACHN): > 100 µM (inactive)
GI50 (IGROV-1): > 100 µM (inactive)
GI50 (NCI-H522): > 100 µM (inactive)
GI50 (HOP-92): 22.5 µM (inactive)
GI50 (BT-549): > 100 µM (inactive)
GI50 (U-251): > 100 µM (inactive)
GI50 (HL-60): 36.1 µM (inactive)
GI50 (MDA-MB-231): > 100 µM (inactive)
GI50 (MOLT-4): 64 µM (inactive)
GI50 (UACC-62): > 100 µM (inactive)
GI50 (COLO 205): > 100 µM (inactive)
GI50 (SW-620): > 100 µM (inactive)
GI50 (TK-10): > 100 µM (inactive)
GI50 (SK-OV-3): > 100 µM (inactive)
GI50 (Hs-578T): > 100 µM (inactive)
GI50 (SK-MEL-2): > 100 µM (inactive)
GI50 (HOP-62): 41 µM (inactive)
GI50 (CAKI-1): > 100 µM (inactive)
GI50 (SR): > 100 µM (inactive)
GI50 (NCI-H226): > 100 µM (inactive)
GI50 (DU-145): > 100 µM (inactive)
GI50 (HCC 2998): > 100 µM (inactive)
GI50 (NCI-H460): > 100 µM (inactive)
GI50 (M14): > 100 µM (inactive)
GI50 (LOX IMVI): > 100 µM (inactive)
GI50 (SNB-19): > 100 µM (inactive)
GI50 (A498): > 100 µM (inactive)
GI50 (MDA-N): > 100 µM (inactive)
GI50 (A549): > 100 µM (inactive)
GI50 (UACC-257): > 100 µM (inactive)
GI50 (SF-268): > 100 µM (inactive)
GI50 (SNB-75): > 100 µM (inactive)
GI50 (SK-MEL-28): > 100 µM (inactive)
GI50 (MDA-MB-435): > 100 µM (inactive)
